Measured values taken from patent US20200187502A1, “MICROBIOCIDAL OXADIAZOLE DERIVATIVES” (SYNGENTA PARTICIPATIONS AG, priority 2017, published 2020).

What was measured:
[1] = tested on: Puccinia recondita f. Sp. Tritici; assay: Fungicidal activity, wheat leaf disc preventative (brown rust); type: in vivo; conditions: foliar, 200 ppm in the applied formulation, wheat leaf segments cv. Kanzler, compared to untreated control, 7 to 9 days after application, read-out: disease control
Procedure, shortened: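 Wheat cv. Kanzler leaf segments on agar were sprayed with formulated compound in water, then inoculated with spores 1 day later. Incubated at 19° C, 75% rh, 12 h light/12 h dark; percent disease control versus untreated scored 7 to 9 days after application.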

[2] = tested on: Puccinia recondita f. Sp. Tritici; assay: Fungicidal activity, wheat leaf disc curative (brown rust); type: in vivo; conditions: foliar, 200 ppm in the applied formulation, wheat leaf segments cv. Kanzler, curative (applied 1 day after inoculation), compared to untreated control, 6 to 8 days after application, read-out: disease control
Procedure, shortened: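 Wheat cv. Kanzler leaf segments on agar were inoculated with fungal spore suspension, held dark at 19° C and 75% RH, then sprayed 1 day later with formulated compound diluted in water. Incubation continued at 19° C, 75% RH, 12 h light/12 h dark; percent disease control versus untreated was scored 6 to 8 days after application.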

Phakopsora pachyrhizi = assay: Fungicidal activity, soybean leaf disc preventative (Asian soybean rust); type: in vivo; conditions: foliar, 200 ppm in the applied formulation, soybean leaf disks, compared to untreated control, 12 to 14 days after application, read-out: disease control
Procedure, shortened: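 Read-out is percent disease control relative to untreated check discs, assessed once untreated discs show adequate disease, 12 to 14 days after application. Compounds, tested at 200 ppm in the applied formulation, are sprayed onto soybean leaf discs one day before inoculation with a spore suspension.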

[3] = tested on: Glomerella lacenarium (Colletotrichum lacenarium); assay: Fungicidal activity, liquid culture, cucumber preventative (anthracnose); type: cell-based; conditions: 20 ppm in the applied formulation, liquid culture in PDB, inhibition of growth measured photometrically 3 to 4 days after application, compared to untreated control, read-out: disease control
Procedure, shortened: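 Conidia from cryogenic storage were mixed into potato dextrose broth and added to DMSO solutions of test compound in microtiter plates. Plates were incubated at 24° C. and growth inhibition read photometrically 3 to 4 days after application, as percent antifungal activity versus untreated check.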

CON(Cc1ccc(-c2noc(C(F)(F)F)n2)s1)C(=O)C1CC1C (centres unmarked) [Compound 1.14, N-methoxy-2-methyl-N-[[5-[5-(trifluoromethyl)-1,2,4-oxadiazol-3-yl]-2-thienyl]methyl]cyclopropanecarboxamide]
≥ 80%: pest or weed control at 200 ppm [1] | pest or weed control at 200 ppm [2] | pest or weed control at 200 ppm (Phakopsora pachyrhizi) | inhibition of growth at 20 ppm [3]

CN(Cc1ccc(-c2noc(C(F)(F)F)n2)s1)C(=O)C1(C)CC1 [Compound 5.21, N,1-dimethyl-N-[[5-[5-(trifluoromethyl)-1,2,4-oxadiazol-3-yl]-2-thienyl]methyl]cyclopropanecarboxamide]
≥ 80%: pest or weed control at 200 ppm [1] | pest or weed control at 200 ppm [2] | pest or weed control at 200 ppm (Phakopsora pachyrhizi) | inhibition of growth at 20 ppm [3]

O=C(NCc1ccc(-c2noc(C(F)(F)F)n2)s1)C1CCC1 [Compound 3.4, N-[[5-[5-(trifluoromethyl)-1,2,4-oxadiazol-3-yl]-2-thienyl]methyl]cyclobutanecarboxamide]
≥ 80%: pest or weed control at 200 ppm [1] | pest or weed control at 200 ppm [2] | pest or weed control at 200 ppm (Phakopsora pachyrhizi) | inhibition of growth at 20 ppm [3]

CON(Cc1ccc(-c2noc(C(F)(F)F)n2)s1)C(=O)C1CC1(F)F (centres unmarked) [Compound 1.8, 2,2-difluoro-N-methoxy-N-[[5-[5-(trifluoromethyl)-1,2,4-oxadiazol-3-yl]-2-thienyl]methyl]cyclopropanecarboxamide]
≥ 80%: pest or weed control at 200 ppm [1] | pest or weed control at 200 ppm [2] | pest or weed control at 200 ppm (Phakopsora pachyrhizi) | inhibition of growth at 20 ppm [3]

CCN(CC)C(=O)N(C)Cc1ccc(-c2noc(C(F)(F)F)n2)s1 [Compound 4.79, 1,1-diethyl-3-methyl-3-[[5-[5-(trifluoromethyl)-1,2,4-oxadiazol-3-yl]-2-thienyl]methyl]urea]
≥ 80%: pest or weed control at 200 ppm [1] | pest or weed control at 200 ppm [2] | pest or weed control at 200 ppm (Phakopsora pachyrhizi) | inhibition of growth at 20 ppm [3]

NC(=O)C(=O)N(Cc1ccc(-c2noc(C(F)(F)F)n2)s1)C1CC1 [Compound 6.10, N′-cyclopropyl-N′-[[5-[5-(trifluoromethyl)-1,2,4-oxadiazol-3-yl]-2-thienyl]methyl]oxamide]
≥ 80%: pest or weed control at 200 ppm [1] | pest or weed control at 200 ppm [2] | pest or weed control at 200 ppm (Phakopsora pachyrhizi) | inhibition of growth at 20 ppm [3]

COCCC(=O)N(C)Cc1ccc(-c2noc(C(F)(F)F)n2)s1 [Compound 4.35, 3-methoxy-N-methyl-N-[[5-[5-(trifluoromethyl)-1,2,4-oxadiazol-3-yl]-2-thienyl]methyl]propanamide]
≥ 80%: pest or weed control at 200 ppm [1] | pest or weed control at 200 ppm [2] | pest or weed control at 200 ppm (Phakopsora pachyrhizi) | inhibition of growth at 20 ppm [3]

CON(Cc1ccc(-c2noc(C(F)(F)F)n2)s1)C(=O)C1CCCO1 (centres unmarked) [Compound 1.17, N-methoxy-N-[[5-[5-(trifluoromethyl)-1,2,4-oxadiazol-3-yl]-2-thienyl]methyl]tetrahydrofuran-2-carboxamide]
≥ 80%: pest or weed control at 200 ppm [1] | pest or weed control at 200 ppm [2] | pest or weed control at 200 ppm (Phakopsora pachyrhizi) | inhibition of growth at 20 ppm [3]

O=C(NCc1ccc(-c2noc(C(F)(F)F)n2)s1)C1CCCO1 (centres unmarked) [Compound 3.8, N-[[5-[5-(trifluoromethyl)-1,2,4-oxadiazol-3-yl]-2-thienyl]methyl]tetrahydrofuran-2-carboxamide]
≥ 80%: pest or weed control at 200 ppm [1] | pest or weed control at 200 ppm [2] | pest or weed control at 200 ppm (Phakopsora pachyrhizi) | inhibition of growth at 20 ppm [3]

CCN(Cc1ccc(-c2noc(C(F)(F)F)n2)s1)C(=O)C1(C)COC1 [Compound 5.14, N-ethyl-3-methyl-N-[[5-(5-(trifluoromethyl)-1,2,4-oxadiazol-3-yl]-2-thienyl]methyl]oxetane-3-carboxamide]
≥ 80%: pest or weed control at 200 ppm [1] | pest or weed control at 200 ppm [2] | pest or weed control at 200 ppm (Phakopsora pachyrhizi) | inhibition of growth at 20 ppm [3]

CCN(Cc1ccc(-c2noc(C(F)(F)F)n2)s1)C(=O)NC(C)C [Compound 4.9, 1-ethyl-3-isopropyl-1-[[5-[5-(trifluoromethyl)-1,2,4-oxadiazol-3-yl]-2-thienyl]methyl]urea]
≥ 80%: pest or weed control at 200 ppm [1] | pest or weed control at 200 ppm [2] | pest or weed control at 200 ppm (Phakopsora pachyrhizi) | inhibition of growth at 20 ppm [3]

CON(C(=O)C1CC1)C(C)c1ccc(-c2noc(C(F)(F)F)n2)s1 (centres unmarked) [Compound 1.48, N-methoxy-N-[1-[5-[5-(trifluoromethyl)-1,2,4-oxadiazol-3-yl]-2-thienyl]ethyl]cyclopropanecarboxamide]
≥ 80%: pest or weed control at 200 ppm [1] | pest or weed control at 200 ppm [2] | pest or weed control at 200 ppm (Phakopsora pachyrhizi) | inhibition of growth at 20 ppm [3]

COCCNC(=O)N(Cc1ccc(-c2noc(C(F)(F)F)n2)s1)C1CC1 [Compound 4.89, 1-cyclopropyl-3-(2-methoxyethyl)-1-[[5-[5-(trifluoromethyl)-1,2,4-oxadiazol-3-yl]-2-thienyl]methyl]urea]
≥ 80%: pest or weed control at 200 ppm [1] | pest or weed control at 200 ppm [2] | pest or weed control at 200 ppm (Phakopsora pachyrhizi) | inhibition of growth at 20 ppm [3]

CON(Cc1ccc(-c2noc(C(F)(F)F)n2)s1)C(=O)C1CCC1 [Compound 1.13, N-methoxy-N-[[5-[5-(trifluoromethyl)-1,2,4-oxadiazol-3-yl]-2-thienyl]methyl]cyclobutanecarboxamide]
≥ 80%: pest or weed control at 200 ppm [1] | pest or weed control at 200 ppm [2] | pest or weed control at 200 ppm (Phakopsora pachyrhizi) | inhibition of growth at 20 ppm [3]

CCN(CC)C(=O)N(Cc1ccc(-c2noc(C(F)(F)F)n2)s1)OC [Compound 1.54, 1,1-diethyl-3-methoxy-3-[[5-[5-(trifluoromethyl)-1,2,4-oxadiazol-3-yl]-2-thienyl]methyl]urea]
≥ 80%: pest or weed control at 200 ppm [1] | pest or weed control at 200 ppm [2] | pest or weed control at 200 ppm (Phakopsora pachyrhizi) | inhibition of growth at 20 ppm [3]

CON(Cc1ccc(-c2noc(C(F)(F)F)n2)s1)C(=O)C1CCOC1 (centres unmarked) [Compound 1.10, N-methoxy-N-[[5-[5-(trifluoromethyl)-1,2,4-oxadiazol-3-yl]-2-thienyl]methyl]tetrahydrofuran-3-carboxamide]
≥ 80%: pest or weed control at 200 ppm [1] | pest or weed control at 200 ppm [2] | pest or weed control at 200 ppm (Phakopsora pachyrhizi) | inhibition of growth at 20 ppm [3]

COCCS(=O)(=O)N(C)Cc1ccc(-c2noc(C(F)(F)F)n2)s1 [Compound 6.21, 2-methoxy-N-methyl-N-[[5-[5-(trifluoromethyl)-1,2,4-oxadiazol-3-yl]-2-thienyl]methyl]ethanesulfonamide]
≥ 80%: pest or weed control at 200 ppm [1] | pest or weed control at 200 ppm [2] | pest or weed control at 200 ppm (Phakopsora pachyrhizi) | inhibition of growth at 20 ppm [3]

CN(Cc1ccc(-c2noc(C(F)(F)F)n2)s1)C(=O)C1CC1 [Compound 5.1, N-methyl-N-[[5-[5-(trifluoromethyl)-1,2,4-oxadiazol-3-yl]-2-thienyl]methyl]cyclopropanecarboxamide]
≥ 80%: pest or weed control at 200 ppm [1] | pest or weed control at 200 ppm [2] | pest or weed control at 200 ppm (Phakopsora pachyrhizi) | inhibition of growth at 20 ppm [3]

C#CCNC(=O)N(CC)Cc1ccc(-c2noc(C(F)(F)F)n2)s1 [Compound 4.75, 1-ethyl-3-prop-2-ynyl-1-[[5-[5-(trifluoromethyl)-1,2,4-oxadiazol-3-yl]-2-thienyl]methyl]urea]
≥ 80%: pest or weed control at 200 ppm [1] | pest or weed control at 200 ppm [2] | pest or weed control at 200 ppm (Phakopsora pachyrhizi) | inhibition of growth at 20 ppm [3]

CN(Cc1ccc(-c2noc(C(F)(F)F)n2)s1)C(=O)CC1CC1 [Compound 5.18, 2-cyclopropyl-N-methyl-N-[[5-[5-(trifluoromethyl)-1,2,4-oxadiazol-3-yl]-2-thienyl]methyl]acetamide]
≥ 80%: pest or weed control at 200 ppm [1] | pest or weed control at 200 ppm [2] | pest or weed control at 200 ppm (Phakopsora pachyrhizi) | inhibition of growth at 20 ppm [3]

COCC(=O)NCc1ccc(-c2noc(C(F)(F)F)n2)s1 [Compound 2.3, 2-methoxy-N-[[5-[5-(trifluoromethyl)-1,2,4-oxadiazol-3-yl]-2-thienyl]methyl]acetamide]
≥ 80%: pest or weed control at 200 ppm [1] | pest or weed control at 200 ppm [2] | pest or weed control at 200 ppm (Phakopsora pachyrhizi) | inhibition of growth at 20 ppm [3]

C=CCN(C)C(=O)N(CC)Cc1ccc(-c2noc(C(F)(F)F)n2)s1 [Compound 4.71, 1-allyl-3-ethyl-1-methyl-3-[[5-[5-(trifluoromethyl)-1,2,4-oxadiazol-3-yl]-2-thienyl]methyl]urea]
≥ 80%: pest or weed control at 200 ppm [1] | pest or weed control at 200 ppm [2] | pest or weed control at 200 ppm (Phakopsora pachyrhizi) | inhibition of growth at 20 ppm [3]

CCC(=O)NCc1ccc(-c2noc(C(F)(F)F)n2)s1 [Compound 2.5, N-[[5-[5-(trifluoromethyl)-1,2,4-oxadiazol-3-yl]-2-thienyl]methyl]propanamide]
≥ 80%: pest or weed control at 200 ppm [1] | pest or weed control at 200 ppm [2] | pest or weed control at 200 ppm (Phakopsora pachyrhizi) | inhibition of growth at 20 ppm [3]
